Results reported in patent US20100174065A1, “COMPOUNDS” (GLAXO GROUP LIMITED, priority 2007, published 2010).
Counter-ions that a name gives are not always drawn.

target: T1, human S1P1 receptor (Homo sapiens, UniProt P21453); assay: S1P1 GTPγS assay; format: biochemical; details: agonist activity, [35S]-GTPγS binding, human S1P1 rat hepatoma membranes
T1 construct: expressed in transfected cells; membranes
Method: (§1) For membrane preparations all steps were performed at 4° C. Rat hepatoma cells stably expressing the human S1P1 receptor or Rat Basophilic Leukaemia cells (RBL) stably expressing human S1P3 receptor were grown to 80% confluency before being harvested into 10 ml Phospho-Buffered Saline (PBS) and centrifuged at 1200 rpm for 5 minutes. After removal of the supernatant, the pellet was re-suspended and cells were homogenised within a glass Waring blender for 2 bursts of 15 secs in 200 mls of buffer (50 mM HEPES, 1 mM leupeptin, 25 μg/ml bacitracin, 1 mM EDTA, 1 mM PMSF, 2 μM pepstatin A). The blender was plunged into ice for 5 mins after the first burst and 10-40 mins after the final burst to allow foam to dissipate. The material was then spun at 500 g for 20 mins and the supernatant spun for 36 mins at 48,000 g. The pellet was resuspended in the same buffer as above but without PMSF and pepstatin A. The material was then forced through a 0.6 mm needle, made up to the required volume, (usually ×4 the volume of the original cell pellet), aliquoted and stored frozen at −80° C.
as §1, with “All” for “For membrane preparations all”, “Cells” for “Rat hepatoma cells stably expressing the human S1P1 receptor or Rat Basophilic Leukaemia cells (RBL) stably expressing human S1P3 receptor were grown to 80% confluency before being harvested into 10 ml Phospho-Buffered Saline (PBS) and centrifuged at 1200 rpm for 5 minutes. After removal of the supernatant, the pellet was re-suspended and cells”
Human S1P1 rat hepatoma membranes (1.5 μg/well) were adhered to a wheatgerm agglutinin (WGA)-coated scintillation proximity assay (SPA) beads (0.125 mg/well) in assay buffer (HEPES 20 mM, MgCl2 10 mM, NaCl 100 mM and pH adjusted to 7.4 using KOH 5M, GDP 10 μM FAC (final assay concentration) and saponin 90 μg/ml FAC was also added).
After 30 minutes pre-coupling on ice the bead and membrane suspension was dispensed into a white Greiner polypropylene LV384-well plate ([…]), containing 0.1 μl of the compound. 5 μl/well [^355]-GTPγS (0.5 nM final radioligand conc) made up in assay buffer was then added to agonist plates. The final assay cocktail (10.1 μl) was then centrifuged at 1000 rpm for 5 minutes then read immediately on a Viewlux reader.
All test compounds were dissolved in DMSO at a concentration of 10 mM and were prepared in 100% DMSO using a 1 in 4 dilution step to provide 11 point dose response curves. The dilutions were transferred to the assay plates ensuring that the DMSO concentration was constant across the plate for all assays.
All data was normalized to the mean of 16 high and 16 low control wells on each plate. A four parameter curve fit was then applied.
S1P1 expressing RH7777 membranes (1.5 μg/well) membranes (1.5 μg/well) were homogenised by passing through a 23G needle. These were then adhered to WGA-coated SPA beads (0.125 mg/well) in assay buffer (HEPES 20 mM, MgCl2 10 mM, NaCl 100 mM and pH adjusted to 7.4 using KOH 5M). GDP 10 μM FAC and saponin 90 μg/ml FAC were also added
After 30 minutes precoupling on ice, the bead and membrane suspension was dispensed into white Greiner polypropylene LV 384-well plates (5 μl/well), containing 0.1 μl of compound. 5 μl/well [^35S]-GTPγS (0.5 nM for S1P1 or 0.3 nM for S1P3 final radioligand concentration) made in assay buffer was then added to the plates. The final assay cocktail (10.1 μl) was then sealed, spun on a centrifuge, then read immediately on a Viewlux instrument.

T1 sequence (P21453 whole entry): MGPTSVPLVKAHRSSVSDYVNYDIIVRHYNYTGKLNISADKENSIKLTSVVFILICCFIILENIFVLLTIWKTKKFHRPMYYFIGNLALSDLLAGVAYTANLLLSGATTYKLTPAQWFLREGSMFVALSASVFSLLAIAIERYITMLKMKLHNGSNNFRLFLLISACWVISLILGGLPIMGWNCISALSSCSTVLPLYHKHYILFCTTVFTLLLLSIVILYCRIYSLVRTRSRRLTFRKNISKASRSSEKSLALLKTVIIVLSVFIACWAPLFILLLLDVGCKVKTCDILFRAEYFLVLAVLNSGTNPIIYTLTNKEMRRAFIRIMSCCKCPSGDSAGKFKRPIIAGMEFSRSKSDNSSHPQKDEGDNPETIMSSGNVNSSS

| EC50 | SMILES |
| --- | --- |
| ≤ 10 nM | CC(C)Oc1ccc(-c2nc(-c3ccc4c(c3)CCN(CCCC(=O)O)CC4)no2)cc1C(F)(F)F [Example 28, 4-(7-{5-[4-[(1-Methylethyl)oxy]-3-(trifluoromethyl)phenyl]-1,2,4-oxadiazol-3-yl}-1,2,4,5-tetrahydro-3H-3-benzazepin-3-yl)butanoic acid hydrochloride] |
| < 100 nM | O=C(O)CCCN1CCc2ccc(-c3noc(-c4ccc(-c5ccccc5)c(C(F)(F)F)c4)n3)cc2CC1 [Example 29, 4-(7-{5-[2-(Trifluoromethyl)-4-biphenylyl]-1,2,4-oxadiazol-3-yl}-1,2,4,5-tetrahydro-3H-3-benzazepin-3-yl)butanoic acid hydrochloride] |
| < 100 nM | CC(C)Oc1ccc(-c2nc(-c3cccc4c3OCCNC4)no2)cc1Cl [Example 31, 9-(5-{3-Chloro-4-[(1-methylethyl)oxy]phenyl}-1,2,4-oxadiazol-3-yl)-2,3,4,5-tetrahydro-1,4-benzoxazepine hydrochloride] |
| < 100 nM | CC(C)Oc1ccc(-c2nc(-c3cccc4c3OCCNC4)no2)cc1C#N [Example 32, 2-[(1-Methylethyl)oxy]-5-[3-(2,3,4,5-tetrahydro-1,4-benzoxazepin-9-yl)-1,2,4-oxadiazol-5-yl]benzonitrile hydrochloride] |
| < 100 nM | CC(C)Oc1ccc(-c2nc(-c3cccc4c3OCCN(CCCC(=O)O)C4)no2)cc1Cl [Example 33, 4-[9-(5-{3-Chloro-4-[(1-methylethyl)oxy]phenyl}-1,2,4-oxadiazol-3-yl)-2,3-dihydro-1,4-benzoxazepin-4(5H)-yl]butanoic acid] |
| < 100 nM | CC(C)Oc1ccc(-c2nc(-c3cccc4c3OCCN(CCCC(=O)O)C4)no2)cc1C#N [Example 34, 4-[9-(5-{3-Cyano-4-[(1-methylethyl)oxy]phenyl}-1,2,4-oxadiazol-3-yl)-2,3-dihydro-1,4-benzoxazepin-4(5H)-yl]butanoic acid] |
| < 100 nM | CC(C)Oc1ccc(-c2nc(-c3ccc4c(c3)CNCCO4)no2)cc1C#N [Example 35, 2-[(1-Methylethyl)oxy]-5-[3-(2,3,4,5-tetrahydro-1,4-benzoxazepin-7-yl)-1,2,4-oxadiazol-5-yl]benzonitrile hydrochloride] |
| < 100 nM | CC(C)Oc1ccc(-c2nc(-c3ccc4c(c3)CN(CCC(=O)O)CCO4)no2)cc1C#N [Example 37, 3-[7-(5-{3-Cyano-4-[(1-methylethyl)oxy]phenyl}-1,2,4-oxadiazol-3-yl)-2,3-dihydro-1,4-benzoxazepin-4(5H)-yl]propanoic acid] |
| < 100 nM | CC(C)Oc1ccc(-c2nc(-c3ccc4c(c3)CN(CCCC(=O)O)CCO4)no2)cc1C#N [Example 39, 4-[7-(5-{3-Cyano-4-[(1-methylethyl)oxy]phenyl}-1,2,4-oxadiazol-3-yl)-2,3-dihydro-1,4-benzoxazepin-4(5H)-yl]butanoic acid] |
| < 100 nM | CC(C)Oc1ccc(-c2nc(-c3ccc4c(c3)OCCNC4)no2)cc1C#N [Example 41, 2-[(1-Methylethyl)oxy]-5-[3-(2,3,4,5-tetrahydro-1,4-benzoxazepin-8-yl)-1,2,4-oxadiazol-5-yl]benzonitrile] |
| < 100 nM | CC(C)Oc1ccc(-c2nc(-c3cccc4c3OCCN(CCCCC(=O)O)C4)no2)cc1C#N [Example 43, 5-[9-(5-{3-Cyano-4-[(1-methylethyl)oxy]phenyl}-1,2,4-oxadiazol-3-yl)-2,3-dihydro-1,4-benzoxazepin-4(5H)-yl]pentanoic acid] |
| < 100 nM | CC(C)Oc1ccc(-c2nc(-c3cccc4c3OCCN(CCC(=O)O)C4)no2)cc1Cl [Example 47, 3-[9-(5-{3-Chloro-4-[(1-methylethyl)oxy]phenyl}-1,2,4-oxadiazol-3-yl)-2,3-dihydro-1,4-benzoxazepin-4(5H)-yl]propanoic acid] |
| < 100 nM | CC(C)Oc1ncc(-c2nc(-c3ccc4c(c3)CCN(CCCC(=O)O)CC4)no2)cc1Cl [Example 50, 4-[7-(5-{5-Chloro-6-[(1-methylethyl)oxy]-3-pyridinyl}-1,2,4-oxadiazol-3-yl)-1,2,4,5-tetrahydro-3H-3-benzazepin-3-yl]butanoic acid] |

| SMILES | EC50 |
| --- | --- |
| CC(C)Oc1ncc(-c2nc(-c3ccc4c(c3)CCNCC4)no2)cc1C#N [Example 48, 2-[(1-Methylethyl)oxy]-5-[3-(2,3,4,5-tetrahydro-1H-3-benzazepin-7-yl)-1,2,4-oxadiazol-5-yl]-3-pyridinecarbonitrile formate] | < 100 nM |

test system: not given; assay: not given; details: clinical studies, first 24 hours of treatment; cited from earlier work

| SMILES | bradycardia on treatment |
| --- | --- |
| CCCCCCCCc1ccc(CCC(N)(CO)CO)cc1 [FTY720] | results in bradycardia |

test system: circulating lymphocytes; assay: not given; details: animals and man; cited from earlier work

| SMILES | effect on circulating lymphocytes |
| --- | --- |
| CCCCCCCCc1ccc(CCC(N)(CO)CO)cc1 [FTY720] | reduce circulating lymphocytes |
